The subject of test [1] is Dirofilaria immitis third-stage larvae. Briefly: In Vitro Assay 3: Dirofilaria immitis (DIROIM L4) larval motility. To be noted: 72 h.
In the next test the target is C. elegans Slo-1a (Caenorhabditis elegans, UniProt Q95V25).
The subject of test [2] is Dirofilaria immitis microfilariae. Put plainly: In Vitro Assay 2: Dirofilaria immitis microfilariae (DIROIM L1) motility. To be noted: 72 h.

The record followed here is patent US11254661B2, “Quinoline derivatives for treating infections with helminths” (Bayer Animal Health GMBH, priority 2017, dated 2022).

Chain of C. elegans Slo-1a (Q95V25 whole entry): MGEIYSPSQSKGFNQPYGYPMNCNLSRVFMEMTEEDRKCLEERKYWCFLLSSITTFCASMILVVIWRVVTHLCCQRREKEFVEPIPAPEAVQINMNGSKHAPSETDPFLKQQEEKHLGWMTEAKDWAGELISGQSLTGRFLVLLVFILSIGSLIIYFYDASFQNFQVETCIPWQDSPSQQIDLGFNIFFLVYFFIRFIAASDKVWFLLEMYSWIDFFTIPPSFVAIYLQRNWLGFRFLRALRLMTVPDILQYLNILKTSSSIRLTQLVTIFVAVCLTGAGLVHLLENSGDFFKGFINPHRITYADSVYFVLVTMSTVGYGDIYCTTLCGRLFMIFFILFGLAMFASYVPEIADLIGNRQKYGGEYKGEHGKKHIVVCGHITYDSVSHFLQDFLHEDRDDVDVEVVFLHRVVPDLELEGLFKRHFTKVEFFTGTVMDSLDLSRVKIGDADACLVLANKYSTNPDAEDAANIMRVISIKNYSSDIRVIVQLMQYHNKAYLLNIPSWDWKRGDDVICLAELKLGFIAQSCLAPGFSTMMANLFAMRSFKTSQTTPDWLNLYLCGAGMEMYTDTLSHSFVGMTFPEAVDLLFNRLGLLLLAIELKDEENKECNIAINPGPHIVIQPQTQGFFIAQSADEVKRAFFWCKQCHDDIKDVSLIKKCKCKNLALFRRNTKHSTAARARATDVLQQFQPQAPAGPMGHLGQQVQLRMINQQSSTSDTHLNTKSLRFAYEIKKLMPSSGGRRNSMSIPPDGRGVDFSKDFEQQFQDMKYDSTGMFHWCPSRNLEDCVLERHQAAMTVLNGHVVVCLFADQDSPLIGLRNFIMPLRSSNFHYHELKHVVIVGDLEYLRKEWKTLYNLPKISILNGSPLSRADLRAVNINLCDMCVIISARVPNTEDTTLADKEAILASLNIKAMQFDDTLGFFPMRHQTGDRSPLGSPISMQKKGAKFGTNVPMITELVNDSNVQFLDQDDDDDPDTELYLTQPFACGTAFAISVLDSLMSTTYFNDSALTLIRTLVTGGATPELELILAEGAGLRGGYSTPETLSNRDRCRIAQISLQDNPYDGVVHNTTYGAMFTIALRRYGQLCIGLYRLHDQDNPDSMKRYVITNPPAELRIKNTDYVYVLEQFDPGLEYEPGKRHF
Experimental for C. elegans Slo-1a: In Vitro Assay 1: C. elegans Slo-1a—Action at a Recombinant C. elegans Cell Line
Cells were cultured at 37° C. and 5% CO2 in MEMalpha with Gutamax I (Invitrogen, Nr.: 32571), supplemented with 10% (v/v) heat inactivated fetal bovine serum (Invitrogen, Nr.: 10500), G418 (1 mg/ml, Invitrogen, Nr.: 10131). Cells were detached using Accutase (Sigma, Nr.: A6964).
Membrane Potential Measurements
Laboratory compound testing was performed on 384-well microtiter plates (MTPs, Greiner, Nr.: 781092). 8000 cells/well were plated onto 384-well MTPs and cultured for 20 to 24 hours at 37° C. and 5% CO2. After removal of the cell culture medium, the cells were washed once with tyrode (150 mM NaCl, 0.3 mM KCl, 2 mM CaCl2, 1 mM MgCl2, 0.8 mM NaH2PO4, 5 mM Glucose, 28 mM Hepes, pH 7.4) and then loaded with the voltage sensitive dye of the Membrane Potential Assay Kit diluted in tyrode for 1 h at room temperature.
After starting the measurement of fluorescence using a FLIPR Tetra(Molecular Devices, Exc. 510-545 nm, Emm. 565-625 nm), test compounds were added followed by the addition of KCl tyrode (final assay concentration: 70 mM KCl, 2 mM CaCl2, 1 mM MgCl2, 0.8 mM NaH2PO4, 5 mM Glucose, 28 mM Hepes, pH 7.4, including the voltage sensitive dye). The measurement was completed after 7 minutes.

Regarding `CN(C)c1c(C(=O)N[C@H]2CCOc3ccccc32)cnc2c(C3CCCCCC3)cccc12` [Example 15, (S)—N-(Chroman-4-yl)-8-cycloheptyl-4-(dimethylamino)quinoline-3-carboxamide], the EC50 is < 0.1 µg/mL in test [1], 3.16 to 31.6 nM on C. elegans Slo-1a and < 0.1 µg/mL in test [2].

Turning to `CN(C)c1c(C(=O)N[C@H]2CCOc3ccccc32)cnc2c(C3=CCC(C)(C)CC3)cccc12` [Example 18, (S)—N-(Chroman-4-yl)-4-(dimethylamino)-8-(4,4-dimethylcyclohex-1-en-1-yl)quinoline-3-carboxamide], the values for the half-maximal effective concentration (EC50) (in test [1]; on C. elegans Slo-1a; in test [2]) were < 1 µg/mL, 31.6 to 316 nM and < 10 µg/mL, respectively.

As for `CC(C)CC(C)c1cccc2c(N3CCOCC3)c(C(=O)N[C@H]3CCOc4ccccc43)cnc12` (stereo partly drawn) [Example 22, N-[(4S)-3,4-dihydro-2H-chromen-4-yl]-8-(4-methylpentan-2-yl)-4-(morpholin-4-yl)quinoline-3-carboxamide], the results for the 50% effective concentration (EC50) (in test [1]; on C. elegans Slo-1a; in test [2]) were < 0.1 µg/mL, 3.16 to 31.6 nM and < 0.1 µg/mL, respectively.

For the molecule `C[C@@H]1C[C@H](C)CN(c2cccc3c(N4CCOCC4)c(C(=O)N[C@H]4CCOc5ccccc54)cnc23)C1` [Example 33, N-[(4S)-3,4-dihydro-2H-chromen-4-yl]-8-[(3R,5S)-3,5-dimethylpiperidin-1-yl]-4-(morpholin-4-yl)quinoline-3-carboxamide], the EC50 was < 0.1 µg/mL in test [1], < 3.16 nM at C. elegans Slo-1a and < 0.1 µg/mL in test [2].

In the case of `C[C@@H]1C[C@H](C)CN(c2cccc3c(N(C)C)c(C(=O)N[C@H]4CCOc5ccccc54)cnc23)C1` [Example 34, N-[(4S)-3,4-dihydro-2H-chromen-4-yl]-4-(dimethylamino)-8-[(3R,5S)-3,5-dimethylpiperidin-1-yl]quinoline-3-carboxamide], the concentration for a half-maximal effect (EC50) in test [1] is < 0.1 µg/mL; at C. elegans Slo-1a it was < 3.16 nM; in test [2] it was < 1 µg/mL.

On to `CC(C)c1c(C(=O)N[C@H]2CCOc3ccccc32)cnc2c(N3CCCCC3)c(F)ccc12` [Example 37, N-[(4S)-3,4-dihydro-2H-chromen-4-yl]-7-fluoro-8-(piperidin-1-yl)-4-(propan-2-yl)quinoline-3-carboxamide], for which the half-maximal effective concentration (EC50) was < 0.1 µg/mL in test [1], 3.16 to 31.6 nM on C. elegans Slo-1a and < 0.1 µg/mL in test [2].

For the molecule `CC(C)c1c(C(=O)N[C@H]2CCOc3ccccc32)cnc2c(N3C[C@H](C)C[C@H](C)C3)c(F)ccc12` [Example 38, N-[(4S)-3,4-dihydro-2H-chromen-4-yl]-8-[(3R,5S)-3,5-dimethylpiperidin-1-yl]-7-fluoro-4-(propan-2-yl)quinoline-3-carboxamide], the concentration giving a half-maximal response (EC50) in test [1] was < 0.1 µg/mL; at C. elegans Slo-1a, < 3.16 nM; in test [2] it was < 0.1 µg/mL.

Turning to `CN(C)c1c(C(=O)N[C@H]2CCc3ccccc32)cnc2c(N3CCC(F)(F)CC3)c(F)ccc12` [Example 39, 8-(4,4-difluoropiperidin-1-yl)-N-[(1S)-2,3-dihydro-1H-inden-1-yl]-4-(dimethylamino)-7-fluoroquinoline-3-carboxamide], the EC50 on C. elegans Slo-1a is 3.16 to 31.6 nM; in test [2], < 1 µg/mL.

As to `O=C(N[C@H]1CCc2ccccc21)c1cnc2c(N3CCC(F)(F)CC3)c(F)ccc2c1N1CCOCC1` [Example 40, 8-(4,4-difluoropiperidin-1-yl)-N-[(1S)-2,3-dihydro-1H-inden-1-yl]-7-fluoro-4-(morpholin-4-yl)quinoline-3-carboxamide], the concentration giving a half-maximal response (EC50) is < 0.1 µg/mL in test [1], 3.16 to 31.6 nM on C. elegans Slo-1a and < 0.1 µg/mL in test [2].

For the molecule `CC1CC(C)CN(c2c(F)ccc3c(N(C)C)c(C(=O)N[C@H]4CCc5ccccc54)cnc23)C1` (stereo partly drawn) [Example 41, N-[(1S)-2,3-dihydro-1H-inden-1-yl]-4-(dimethylamino)-8-(3,5-dimethylpiperidin-1-yl)-7-fluoroquinoline-3-carboxamide], the half-maximal effective concentration (EC50) on C. elegans Slo-1a was 3.16 to 31.6 nM; in test [2], < 1 µg/mL.

With `CN(C)c1c(C(=O)N[C@H]2CCc3ccccc32)cnc2c(N3CCCC3)c(F)ccc12` [Example 42, N-[(1S)-2,3-dihydro-1H-inden-1-yl]-4-(dimethylamino)-7-fluoro-8-(pyrrolidin-1-yl)quinoline-3-carboxamide], the concentration giving a half-maximal response (EC50) at C. elegans Slo-1a is 31.6 to 316 nM; in test [2] it was < 10 µg/mL.

On to `O=C(N[C@H]1CCc2ccccc21)c1cnc2c(N3CCCCC3)c(F)ccc2c1N1CCOCC1` [Example 43, N-[(1S)-2,3-dihydro-1H-inden-1-yl]-7-fluoro-4-(morpholin-4-yl)-8-(piperidin-1-yl)quinoline-3-carboxamide], for which the results for the EC50 (in test [1]; on C. elegans Slo-1a; in test [2]) were < 0.1 µg/mL, 3.16 to 31.6 nM and < 0.1 µg/mL, respectively.

As for `CN(C)c1c(C(=O)N[C@H]2CCc3ccccc32)cnc2c(N3CCCCC3)c(F)ccc12` [Example 44, N-[(1S)-2,3-dihydro-1H-inden-1-yl]-4-(dimethylamino)-7-fluoro-8-(piperidin-1-yl)quinoline-3-carboxamide], the concentration giving a half-maximal response (EC50) was 3.16 to 31.6 nM at C. elegans Slo-1a and < 1 µg/mL in test [2].

For `O=C(N[C@H]1CCc2ccccc21)c1cnc2c(N3CCOCC3)c(F)ccc2c1N1CCOCC1` [Example 45, N-[(1S)-2,3-dihydro-1H-inden-1-yl]-7-fluoro-4,8-di(morpholin-4-yl)quinoline-3-carboxamide], the EC50 is 31.6 to 316 nM at C. elegans Slo-1a and < 1 µg/mL in test [2].

With `CN(C)c1c(C(=O)N[C@H]2CCc3ccccc32)cnc2c(N3CCS(=O)(=O)CC3)c(F)ccc12` [Example 46, N-[(1S)-2,3-dihydro-1H-inden-1-yl]-4-(dimethylamino)-8-(1,1-dioxidothiomorpholin-4-yl)-7-fluoroquinoline-3-carboxamide], the half-maximal effective concentration (EC50) is 316 to 5010 nM at C. elegans Slo-1a and < 10 µg/mL in test [2].

With `CN(C)c1c(C(=O)N[C@H]2CCc3ccccc32)cnc2c(N3CCOCC3)c(F)ccc12` [Example 47, N-[(1S)-2,3-dihydro-1H-inden-1-yl]-4-(dimethylamino)-7-fluoro-8-(morpholin-4-yl)quinoline-3-carboxamide], the values for the EC50 (at C. elegans Slo-1a; in test [2]) were 316 to 5010 nM and < 10 µg/mL, respectively.

As to `O=C(N[C@H]1CCc2ccccc21)c1cnc2c(N3CCCC3)c(F)ccc2c1N1CCOCC1` [Example 48, N-[(1S)-2,3-dihydro-1H-inden-1-yl]-7-fluoro-4-(morpholin-4-yl)-8-(pyrrolidin-1-yl)quinoline-3-carboxamide], the values for the EC50 (on C. elegans Slo-1a; in test [2]) were 3.16 to 31.6 nM and < 1 µg/mL, respectively.

Turning to `CC1CC(C)CN(c2c(F)ccc3c(N4CCOCC4)c(C(=O)N[C@H]4CCc5ccccc54)cnc23)C1` (stereo partly drawn) [Example 49, N-[(1S)-2,3-dihydro-1H-inden-1-yl]-8-(3,5-dimethylpiperidin-1-yl)-7-fluoro-4-(morpholin-4-yl)quinoline-3-carboxamide], the EC50 was < 0.1 µg/mL in test [1], < 3.16 nM at C. elegans Slo-1a and < 0.1 µg/mL in test [2].
